Results published in patent US10450317B2, “Notch pathway signaling inhibitor compounds” (Eli Lilly and Company, priority 2015, dated 2019).
pIC50: −log10 of the molar value.

How the values were obtained:
HEK293ΔE12 cells = assay: Relative cytotoxicity profiling (% cell number) in the N1ICD imaging assay; assay type: cell-based, human; conditions: up to 1000 nM concentration, 24 hours treatment
Procedure: HEK293ΔE12 cells (HEK293 cells are engineered to stably express mouse Notch1 cDNA coding for amino acid 1703-2183, Np_932740.3, (Full length mouse Notch 1 protein precursor: SEQ ID NO:1) with 23 amino acid signal peptide sequence, […] (SEQ ID NO:2), at its N-terminus) are plated at 5000 cells/well in 96 well plates, incubated in Dulbecco's Modified. Eagle's Medium (DMEM)-high glucose with 5% fetal bovine serum (FBS) at 37° C., 5% CO2 for 24 hours. Cells are treated with test compound, dosing at 10 points of 1:3 dilutions across the range of 1000 nM to 0.05 nM, and with final dimethyl sulfoxide (DMSO) concentration at 0.2%. […] Plates are scanned with ACUMEN EXPLORER™ Laser-scanning fluorescence microplate cytometer (TTP LABTECH LTD) to measure total cell nuclear count/well and total nuclear area/well with fluorescence at 655 nm-705 nm (emission of DNA bound propidium iodide) and fluorescence of antibody binding to N1ICD in nuclear region at 505 nm-530 nm. The main assay output is a ratio of total fluorescence of nuclear N1ICD to total nuclear area, the normalized nuclear N1ICD signal. […] Concentration response and the IC50 are determined by curve fitting to a four parameter logistic for the nuclear N1ICD signal, while the % cell number is plotted in the same graph for cytotoxicity profiling.

hAtoh1 = assay: Induction of hAtoh1 expression in human tumor cell line LS174T (qPCR); assay type: cell-based; conditions: LS174T cells, 72 hours, read-out: IC50 (relative expression of hAtoh1)
Procedure: To evaluate potency of Compounds 1, Isomer 2 and 2, Isomer 2 in their ability to induce hAtoh1 expression, a human tumor cell line is utilized. Endogenous Notch signaling regulation for this cell line is similar to that in the inner ear. Generally, this assay is carried out following principles in Kazanjian et al., Gastroenterology, 2010, 139(3): 918-928 and Supplementary Materials and Methods.
Generally, standard cell culture techniques are used. Low passage human colorectal adenocarcinoma cell line LS174T (ATCC CL-188) maintained in Growth Medium (MEM 10% FBS) is plated 10,000 cells in 100 μl Assay Medium (MEM 1% FBS) per well into 96-well tissue culture treated plates. […]
To quantify the expression of hair cell markers from the […], qPCR probes to detect hAtoh1 or TBP expression in a single two-color multiplex reaction is carried out. […] Relative gene expression between treatment groups is analyzed using the ΔΔCT method and replicate measurements are averaged.
Four separate assays are carried out to obtain IC50 values for each test compound. The IC50 value is determined by fitting concentration response data to “log(antagonist) vs. response (three parameter)” model using GraphPad Prism® software for 12 doses across a concentration range of 4.0E-11 to 1.0E-6 M with 108 total points analyzed for each compound.

pIC50 (hAtoh1) | SMILES | effect on cell number (cytotoxicity profiling) (HEK293ΔE12 cells)
7.26 | C[C@H](NC(=O)CCC(F)(F)F)C(=O)NC1C(=O)C=C2N(CCC2(C)C)c2ncccc21 (single isomer, unassigned) [Compound 2, Isomer 2] | Neither compound affects cell number
7.78 | COc1ccc2c(c1)N1CCC(C)(C)C1=CC(=O)C2NC(=O)[C@H](C)NC(=O)CCC(F)(F)F (single isomer, unassigned) [Compound 1, Isomer 2] | Neither compound affects cell number
